Results taken from patent US20170056561A1, “COMPOSITIONS FOR THE TREATMENT OF JOINTS” (CorMedix Inc., priority 2015, published 2017).

Legend:
[1] = tested on: Pseudomonas aeruginosa (PAO1); experiment: Solution exposure of HA/taurolidine hydrogels to living cultures (bacteria kill); format: cell-based; conditions: 20 μl early phase culture in 980 μl formulation
Experimental: (§1) The following evaluations were done to assess the performance of gels comprising hyaluronic acid and taurolidine. Solution exposure of the hyaluronic acid/taurolidine hydrogels, immersed in early phase concentrations of 2 test microorganisms, were conducted. Additionally, the physical properties of the hydrogels were assessed to determine their shear/thixotropic properties.
(§2) In this study, two strains of bacteria, Pseudomonas aeruginosa (PAO1) and Stapylococcus aureus strain SA 113), were evaluated for total kill of each of the strains after 4 and 24 hours of exposure. 20 μl of early phase culture of each strain was placed in 980 μl of each hyaluronic acid/taurolidine formulation. Samples of remaining bacteria concentrations were determined for the samples after 4 and 24 hours of exposure. Four controls were prepared, one control without hyaluronic acid and three other controls with different molecular weights of hyaluronic acid (low, medium and high MW) (all without taurolidine). These were compared against the same 3 different molecular weights of hyaluronic acid which contained taurolidine, with each hyaluronic acid MW containing target concentrations of 1.5, 3, or 6% taurolidine by weight in the hyaluronic acid hydrogel matrix (Table 1). […] These were also evaluated against a known antimicrobial, gentamicin.

[2] = tested on: Stapylococcus aureus strain SA 113; experiment: as above; format: cell-based; conditions: 20 μl early phase culture in 980 μl formulation
Experimental: as §1, §2

Gentamicin
Remaining bacteria concentrations PA01 (4 hr) ([1]; 4 hour exposure): 0.00E+00
Remaining bacteria concentrations PA01 (24 hr) ([1]; 24 hour exposure): 0.00E+00
Remaining bacteria concentrations SA113 (4 hr) ([2]; 4 hour exposure): 3.77E+02
Remaining bacteria concentrations SA113 (24 hr) ([2]; 24 hour exposure): 8.33E+00
